In assay [1] the test system is CT26.CL25 colon cancer tumor endothelial cells. In words: Colon CT26 ex vivo model of tumor angiogenesis. In kind it is cell-based, mouse. Conditions: for cytotoxicity at 40 µM / cytotoxicity at 10 µM / cytotoxicity at 20 µM: Mus musculus, Endothelial cell, 48 h, read-out: Cell death. The essentials: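 Cell death was read by FDA (live, green) and PI (dead, red) fluorescence imaging, e.g. 48 h after treatment. Treatment began once endothelial cells had grown out of Matrigel-embedded CT26 colon tumor fragments, typically after 7 days of culture in endothelial growth medium at 37 °C.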

Assay [2] concerns LL/2 lung cancer tumor endothelial cells. In words: Lung LL2 ex vivo model of tumor angiogenesis. The class given is cell-based, mouse. Conditions: for 48 hrs (morphology observations): LL/2 tumor endothelial cells; for cytotoxicity at 40 µM / cytotoxicity at 20 µM: Mus musculus, Endothelial cell, 48 h, read-out: Cell death; for Cell death: drug treatment for two days, ratio of red area to total endothelial cell area. The essentials: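 Live/dead imaging with FDA and PI, taken e.g. 48 h post-drug under fixed channel settings, measures treatment effects on endothelial cells sprouting from Lewis lung tumor explants. Explants were seeded in Matrigel drops and grown ~4 days in endothelial growth medium, 37 °C, 5% CO2, before dosing.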

The text below walks through data of patent US20250230226A1, “PLXDC1/PLXDC2 ACTIVATORS AND THEIR USE IN THE TREATMENT OF BLOOD VESSEL DISORDERS” (THE REGENTS OF THE UNIVERSITY OF CALIFORNIA, priority 2019, published 2025).

SMILES strings stand for the structures.

As for `COc1ccc(S(=O)(=O)c2cnc3ccc(OC(F)(F)F)cc3c2NCCO)cc1OC` [Compound 69], the “48 hrs (morphology observations after 48 hours)” value in assay [1] (Conc. 40 μm) is recorded as 0. Besides, the cytotoxicity at 40 µM in assay [1] was found to be 0%; in assay [2], 20%. Besides, in assay [2] (40 μm), the “48 hrs (morphology observations)” value was determined as 0.

As to `CCCCOc1ccc(S(=O)(=O)c2cnc3ccc(OC(F)(F)F)cc3c2N2CCCN(C)CC2)cc1` [Compound 151], the “48 hrs (morphology observations after 48 hours)” value in assay [1] (Conc. 40 μm) was “**** (100% of endothelial cells vesicularize in cell shape and look flattened in morphology (indicating disintegration of the cell body))”. The cytotoxicity at 40 µM in assay [1] and in assay [2] was 100% each time. Moreover, the “48 hrs (morphology observations)” value in assay [2] (40 μm) was “**** (100% of endothelial cells vesicularize in cell shape and look flattened in morphology (indicating disintegration of the cell body))”.

Consider `CCOC(=O)c1ccc2ncc(S(=O)(=O)c3ccc(CC)cc3)c(N3CCC(O)CC3)c2c1` [Compound 62], for which the “48 hrs (morphology observations after 48 hours)” value in assay [1] (Conc. 40 μm) is listed as “** (more than 50% but less than 100% of endothelial cells vesicularize in cell shape)”. Further, the cytotoxicity at 40 µM in assay [1] amounted to 70%. In addition, in assay [2] (40 μm), the “48 hrs (morphology observations)” value is recorded as “*** (more than 50% but less than 100% of endothelial cells vesicularize in cell shape)” and the Cell death is reported as 30%.

Regarding `CCCCOc1ccc(S(=O)(=O)c2cnc3ccc(OC(F)(F)F)cc3c2NN2CCN(C)CC2)cc1` [Compound 92], the “48 hrs (morphology observations after 48 hours)” value in assay [1] (Conc. 40 μm) is reported as 0. Further, the cytotoxicity at 40 µM in assay [1] was determined as 0%. The Cell death in assay [2] (20 μm) is reported as 10%.

On to `CCOC(=O)c1ccc2ncc(S(=O)(=O)c3ccc(CC)cc3)c(-n3cncn3)c2c1` [Compound 80], for which the “48 hrs (morphology observations after 48 hours)” value in assay [1] (Conc. 10 μm) was “*** (100% of endothelial cells vesicularize in cell shape)”. Also, in assay [1], the cytotoxicity at 10 µM was found to be 100%. The “48 hrs (morphology observations)” value in assay [2] (20 μm) is recorded as “*** (more than 50% but less than 100% of endothelial cells vesicularize in cell shape)”. Further, in assay [2], the cytotoxicity at 20 µM amounted to 100%.

In the case of `CCN(CC)C(=O)c1ccc2ncc(S(=O)(=O)c3ccc(OC)cc3)c(N3CCCN(C)CC3)c2c1` [Compound 165], in assay [1] (Conc. 40 μm), the “48 hrs (morphology observations after 48 hours)” value came out at 0. In addition, the cytotoxicity at 40 µM in assay [1] and in assay [2] was 10% in each case. The “48 hrs (morphology observations)” value in assay [2] (40 μm) is “* (50% or less of cells vesicularize in cell shape)”.

Turning to `CCCCCCCOc1ccc(S(=O)(=O)c2cnc3ccc([S+](C)[O-])cc3c2N2CCC(N3CCCCC3)CC2)cc1` (centres unmarked) [Compound 221], the “48 hrs (morphology observations after 48 hours)” value in assay [1] (Conc. 40 μm) is “**** (100% of endothelial cells vesicularize in cell shape and look flattened in morphology (indicating disintegration of the cell body))”. Moreover, the cytotoxicity at 40 µM in assay [1] and in assay [2] was 100% throughout. For the same compound, the “48 hrs (morphology observations)” value in assay [2] (40 μm) is “**** (100% of endothelial cells vesicularize in cell shape and look flattened in morphology (indicating disintegration of the cell body))”.

`CCc1ccc(S(=O)(=O)c2cnc3ccc(OC(F)(F)F)cc3c2NN2CCN(C)CC2)cc1` [Compound 50]: the “48 hrs (morphology observations after 48 hours)” value in assay [1] (Conc. 40 μm) is “*** (100% of endothelial cells vesicularize in cell shape)”. Further, the cytotoxicity at 40 µM in assay [1] stood at 100%. Further, in assay [2] (40 μm), the “48 hrs (morphology observations)” value is reported as “*** (more than 50% but less than 100% of endothelial cells vesicularize in cell shape)” and the Cell death is listed as 90%.

For the compound `COc1ccc(S(=O)(=O)c2cnc3ccc([N+](=O)[O-])cc3c2-n2cncn2)cc1` [Compound 97], the “48 hrs (morphology observations after 48 hours)” value in assay [1] (Conc. 10 μm) is “*** (100% of endothelial cells vesicularize in cell shape)”. In addition, in assay [1], the cytotoxicity at 10 µM was 100%. For the same compound, the Cell death in assay [2] (20 μm) worked out at 50%.

On to `CCCCOc1ccc(S(=O)(=O)c2cnc3ccc(OC(F)(F)F)cc3c2N2CCC(N3CCC(O)CC3)CC2)cc1` [Compound 152], for which, in assay [1] (Conc. 40 μm), the “48 hrs (morphology observations after 48 hours)” value is “** (more than 50% but less than 100% of endothelial cells vesicularize in cell shape)”. Moreover, the cytotoxicity at 40 µM in assay [1] came out at 30%. In assay [2] (20 μm), the “48 hrs (morphology observations)” value is given as “* (50% or less of cells vesicularize in cell shape)” and the Cell death was found to be 20%.

As to `CCCCOc1ccc(S(=O)(=O)c2cnc3ccc(C(=O)OCC)cc3c2N2CCC(N3CCC(c4ccccc4)CC3)CC2)cc1` [Compound 215], in assay [1] (Conc. 40 μm), the “48 hrs (morphology observations after 48 hours)” value is reported as 0. Further, the cytotoxicity at 40 µM in assay [1] was 20%; in assay [2], 30%. For the same compound, the “48 hrs (morphology observations)” value in assay [2] (40 μm) amounted to 0.

Consider `CCc1ccc(S(=O)(=O)c2cnc3ccc([N+](=O)[O-])cc3c2N2CCCN(C)CC2)cc1` [Compound 76], for which the “48 hrs (morphology observations after 48 hours)” value in assay [1] (Conc. 40 μm) is on record as “** (more than 50% but less than 100% of endothelial cells vesicularize in cell shape)”. Further, the cytotoxicity at 40 µM in assay [1] is 100%. Also, in assay [2] (40 μm), the “48 hrs (morphology observations)” value was found to be 0 and the Cell death was 20%.

As for `O=[N+]([O-])c1ccc(S(=O)(=O)c2cnc3ccc(OC(F)(F)F)cc3c2N2CCC(N3CCCCC3)CC2)cc1` [Compound 59], in assay [1] (Conc. 40 μm), the “48 hrs (morphology observations after 48 hours)” value was determined as 0. Moreover, the cytotoxicity at 40 µM in assay [1] is 50%. Besides, the Cell death in assay [2] (40 μm) stood at 40%.

In the case of `CCCCOc1ccc(S(=O)(=O)c2cnc3ccc(C(=O)OCC)cc3c2N2CCC(N3CCN(CCO)CC3)CC2)cc1` [Compound 214], the “48 hrs (morphology observations after 48 hours)” value in assay [1] (Conc. 40 μm) is “**** (100% of endothelial cells vesicularize in cell shape and look flattened in morphology (indicating disintegration of the cell body))”. Besides, the cytotoxicity at 40 µM in assay [1] and in assay [2] was 100% throughout. Besides, the “48 hrs (morphology observations)” value in assay [2] (40 μm) is “**** (100% of endothelial cells vesicularize in cell shape and look flattened in morphology (indicating disintegration of the cell body))”.

With `CCCCOc1ccc(S(=O)(=O)c2cnc3ccc([S+](C)[O-])cc3c2N2CCCN(C)CC2)cc1` (centres unmarked) [Compound 163], in assay [1] (Conc. 40 μm), the “48 hrs (morphology observations after 48 hours)” value is “**** (100% of endothelial cells vesicularize in cell shape and look flattened in morphology (indicating disintegration of the cell body))”. In assay [1], the cytotoxicity at 40 µM came out at 100%. Besides, in assay [2] (40 μm), the “48 hrs (morphology observations)” value was “**** (100% of endothelial cells vesicularize in cell shape and look flattened in morphology (indicating disintegration of the cell body))”; the Cell death was 95%.

For the compound `CCc1ccc(S(=O)(=O)c2cnc3ccc(OC(F)(F)F)cc3c2-n2ccnc2)cc1` [Compound 118], in assay [1] (Conc. 20 μm), the “48 hrs (morphology observations after 48 hours)” value is given as “*** (100% of endothelial cells vesicularize in cell shape)”. Moreover, the cytotoxicity at 20 µM in assay [1] and in assay [2] was 100% throughout. The “48 hrs (morphology observations)” value in assay [2] (20 μm) is recorded as “*** (more than 50% but less than 100% of endothelial cells vesicularize in cell shape)”.

Consider `CCc1ccc(S(=O)(=O)c2cnc3ccc(OC(F)(F)F)cc3c2N2CCC(OCCN(CC)CC)CC2)cc1` [Compound 101], for which the “48 hrs (morphology observations after 48 hours)” value in assay [1] (Conc. 20 μm) is reported as “* (50% or less of cells vesicularize in cell shape)”. The cytotoxicity at 20 µM in assay [1] amounted to 50%; in assay [2], 100%. Moreover, the “48 hrs (morphology observations)” value in assay [2] (20 μm) is listed as “*** (more than 50% but less than 100% of endothelial cells vesicularize in cell shape)”.

For `CCOC(=O)c1ccc2ncc(S(=O)(=O)c3ccc(OC)cc3)c(N(CCO)CCO)c2c1` [Compound 156], in assay [1] (Conc. 40 μm), the “48 hrs (morphology observations after 48 hours)” value is 0. Moreover, the cytotoxicity at 40 µM in assay [1] came out at 0%; in assay [2] it was 30%.
